{"source": "patent US20150335678A1", "about": "“METHOD OF ACTIVATING STEM CELLS IN AN ANIMAL AND THE USE OF CHLORINE DIOXIDE FOR PREPARING MEDICINES FOR ACTIVATING STEM CELLS IN AN ANIMAL” (priority 2012, published 2015)", "key": {"[1]": {"test_system": "nestin-positive cells (neural stem cells)", "assay": "Nestin-positive cells in the SVZ region, immunohistochemical stain", "assay_type": "in vivo, Sprague-Dawley rats", "conditions": "for number of nestin-positive cells in the SVZ region (mean±SD): diluted solution via carotid artery once a day, ten days", "method": "Male Sprague-Dawley rats with the age of 12 weeks and weight of 250^˜280 g were used in the experiment after acclimating for a week.\nA middle cerebral artery occlusion model was first established in compliance with the method of Longa E Z et al. (Longa E Z, et al. Reversible middle cerebral artery occlusion without craniectomy in rats. Stroke 20:84-91, 1989). More specifically, 0.36 g/kg of 10% chloral hydrate was administered intraperitoneally to rats which had been fasted for 12 hours (although given free access to water) to anesthetize the rats. Next, a midline incision was made in the neck to expose the right common carotid artery. Then, the internal carotid artery and external carotid artery were separated, the posterior carotid artery, which is a branch of the external carotid artery, and the thyroidea arteria were coagulated and severed, the external carotid artery was ligated at the branch of the lingual artery and maxillary artery, a small puncture was formed in the external carotid artery, 4-0 Nylon suture was passed through the common carotid artery from the puncture, and gradually inserted into the internal carotid artery until there was resistance. The length of the Nylon suture was about 18^˜20 mm from the branch of the common carotid artery. As a result of occluding the middle cerebral artery with Nylon suture, an ischemic state was applied for 2 hours to create a middle cerebral artery occlusion model.\nA cerebral ischemia/reperfusion injury model was established by removing the Nylon suture from the middle cerebral artery of the occlusion model and following reperfusion of blood.\nThe first solution was a mixed solution made of sodium chlorite with the concentration of 7.47% and sodium chloride with the concentration of 1.59% with deionized water; the second solution was made of citric acid with the concentration of 16.7% with deionized water. Same volume of solutions were taken out from different vessels with different volumes and mixed up. Allow the solution to mix for 3-5 minutes and dilute it five times with normal saline, and then filter it with 0.22 μm filter membrane of double-deck. The solution was immediately put into injector. The solution was prepared once being used.\nTreatment group (120 rats): A cerebral ischemia/reperfusion injury model was established for the rats already. To administer chlorine dioxide solution everytime that prepared from procedure (3) through carotid artery after the second day the model has established, once a day for total ten days.\nTen rats of each group were autopsied on day 7, 14 and 21 after the model established, respectively (total animals are 30 rats from each group). After preparation of tissue specimens, the neural stem cells were counted under a microscope.\nMore specifically, rat frozen brain sections were prepared on day 7, 14 and 21 after the model established, and the presence of nestin-positive cells in the subventricular zone (SVZ) was measured by immunohistochemical stain using the marker of nestin expressed on the neural stem cells. The presence of nestin-positive cells was analyzed using mouse anti-rat nestin monoclonal antibody.\nBRt(%)=(Bt−St)/(Mt−St)×100"}, "scar": {"test_system": "scar", "assay": "Patients with scar, topical solution with dimethyl sulfoxide (Example 13)", "assay_type": "in vivo, human", "conditions": "20 patients with scar", "text": "The subjects consisted of 20 patients with scar, including 7 male and 13 female (average age: 33 years old.) There are five cases with burn scar, 7 cases with scars resulting from accidental injury, 5 cases with surgical scar, 3 cases with scar from skin disease. The average course of disease is about 3 years.\nThen the solution was immediately smeared over the scar, once a day for 10-15 days consecutively then stops administration. The second administration began 1-2 months after drug withdrawal of the first administration, once a day for consecutive 5-10 days.\nTo observe the effects a month after first administration and second administration. The effects were measured according to pain, stiffness and hyperpigmentation around.\nspecific criteria: obvious pain (+++), moderate pain (++), mild pain (+) no pain (−). stiffness of scar: can't sunken with hard pressing, (+++) can sunken with moderate pressing, (++), complete depression with mild pressing (+). Same character with normal skin (−). hyperpigmentation around: >2 cm, (+++), 1˜2 cm (++), <1 cm (+), 0 (−)\nMeasurement of clinical effect: excellent: no pain, and the stiffness is the same to normal skin with no hyperpigmentation around. effective: the indicators of pain, stiffness and hyperpigmentation are (+)˜(++); ineffective: one of the indicators of pain, stiffness and hyperpigmentation is (+++)."}, "wound": {"test_system": "wound", "conditions": "clinical trial report No. NCT01341041, Rhode Island Hospital; cited from earlier work"}, "localized psoriasis": {"test_system": "localized psoriasis", "assay": "Localized psoriasis patients, cure and recurrence vs cream control (Example 8)", "assay_type": "in vivo, human", "text": "The subjects consisted of 86 patients with localized psoriasis aged from 28 to 68 years old, among which 43 patients were randomly assigned to treatment group, and 43 to control group. The disease broke out continuously with more than nine months of course of disease. The purpose of the clinical test was explained to all subjects and their consent was obtained before conducting the clinical test. Treatment group: 29 male patients (74.36%), 10 female (25.64%); age (49.05±14.57); course of disease (12±9) years. Control group: 28 male patients (68.29%), 13 female patients (31.71%); age (47.05±16.25); course of disease (12±10) years.\nThe solution was immediately smeared over the affected region, once a day for 10 to 15 days, and then stop administration. If it relapsed, reusing it again. […] If it relapsed, reusing it again. The due time was six months.\nThe criteria for measuring the effect: Take PASI as reference.\nA. The areas: grading from 0 to 6 for the four body parts respectively: area: 0=no rash;\nB. Severity of the clinic: erythema; infiltration; scale. Grading each characteristics from 0 to 4 point; 0=no; 1=mild; 2=moderate; 3=severe; 4=extremely severe. Calculating the grades of each parts and working out the total points. The criteria of the effect (PASI decrease percentage): recovery score: ≧95%; excellent score both ≧61% and <95%; improved score both ≧20% and <60%; No effect score<20%.\nThe example was enumeration data and a Chi-square test was conducted to compare the cure rate and recurrence rate of the two groups."}, "[2]": {"conditions": "a month after first administration"}, "[3]": {"conditions": "a month after second administration"}, "[4]": {"conditions": "after 6 months, 43 patients per group"}, "[5]": {"conditions": "follow-up average 6 months, 35 treatment, 32 control patients"}}}
{"smiles": "[O][Cl+][O-]", "note": "[chlorine dioxide solution, chlorine dioxide]", "values": [{"measurement": "BRt: nestin-positive cells in treatment group relative to model group = 100%, (Bt-St)/(Mt-St)x100", "setting": "[1]; Day 7", "value": 157.4, "unit": "%"}, {"measurement": "number of nestin-positive cells in the SVZ region (mean±SD)", "setting": "[1]; Day 7 after model established, model group 210.5 ± 22.3, sham 45.6 ± 5.69", "value": "305.2 ± 30.6", "unit": "No. cells/mm2"}, {"measurement": "BRt: nestin-positive cells in treatment group relative to model group = 100%, (Bt-St)/(Mt-St)x100", "setting": "[1]; Day 14", "value": 150.2, "unit": "%"}, {"measurement": "number of nestin-positive cells in the SVZ region (mean±SD)", "setting": "[1]; Day 14, model group 74.5 ± 13.4, sham 13.2 ± 1.64", "value": "105.3 ± 15.4", "unit": "No. cells/mm2"}, {"measurement": "BRt: nestin-positive cells in treatment group relative to model group = 100%, (Bt-St)/(Mt-St)x100", "setting": "[1]; Day 21", "value": 138.5, "unit": "%"}, {"measurement": "number of nestin-positive cells in the SVZ region (mean±SD)", "setting": "[1]; Day 21, model group 46.2 ± 6.31, sham 1.99 ± 1.09", "value": "63.2 ± 7.55", "unit": "No. cells/mm2"}, {"measurement": "ineffective (%)", "setting": "scar; [2]", "value": 25, "unit": "%"}, {"measurement": "ineffective (No.)", "setting": "scar; [2]", "value": 5}, {"measurement": "total efficiency (%)", "setting": "scar; [2]", "value": 30, "unit": "%"}, {"measurement": "total efficiency (No.)", "setting": "scar; [2]", "value": 6}, {"measurement": "Efficiency rate (No.)", "setting": "scar; a month after first administration, NaClO2 10%/NaCl 2.5% + citric acid 20% 1:1, DMSO 1:1, smeared once a day 10-15 days", "value": 9}, {"measurement": "Efficiency rate (%)", "setting": "scar; a month after first administration, topical with DMSO", "value": 45, "unit": "%"}, {"measurement": "Efficiency rate (No.)", "setting": "scar; a month after second administration (once a day 5-10 days, 1-2 months after the first)", "value": 15}, {"measurement": "Efficiency rate (%)", "setting": "scar; [3]", "value": 75, "unit": "%"}, {"measurement": "ineffective (No.)", "setting": "scar; [3]", "value": 0}, {"measurement": "total efficiency (%)", "setting": "scar; [3]", "value": 25, "unit": "%"}, {"measurement": "total efficiency (No.)", "setting": "scar; [3]", "value": 5}, {"measurement": "effects compared with normal saline in wound irrigation", "setting": "wound", "value": "promote healing and reduce scar formation"}, {"measurement": "No. effective patients", "setting": "localized psoriasis; [4]", "value": "0 (0) ^"}, {"measurement": "No. ineffective patients", "setting": "localized psoriasis; [4]", "value": "0 (0)"}, {"measurement": "effective patients percentage", "setting": "localized psoriasis; [4]", "value": "0 (0) ^ %"}, {"measurement": "improvement Percentage", "setting": "localized psoriasis; [4]", "value": 4.6, "unit": "%"}, {"measurement": "ineffective patients percentage", "setting": "localized psoriasis; [4]", "value": "0 (0) %"}, {"measurement": "No. Cure", "setting": "localized psoriasis; after 6 months, 43 patients per group, smeared once a day 10 to 15 days, repeated on relapse, at most three treatments, test solution NaClO2 10%/NaCl 2.5% + citric acid 22% 1:1, PASI-based", "value": 41}, {"measurement": "Cure Percentage", "setting": "localized psoriasis; after 6 months, 43 patients per group, topical once a day 10 to 15 days, repeated on relapse, P<0.01 between groups", "value": 95.3, "unit": "%"}, {"measurement": "No. non recurrence patients", "setting": "localized psoriasis; [5]", "value": 33}, {"measurement": "non recurrence patients percentage", "setting": "localized psoriasis; [5]", "value": 94.3, "unit": "%"}, {"measurement": "No. recurrence patients", "setting": "localized psoriasis; follow-up average 6 months, 35 treatment, 32 control patients followed", "value": 2}, {"measurement": "recurrence patients percentage (recurrence rate)", "setting": "localized psoriasis; follow-up average 6 months, 35 treatment, 32 control patients, P<0.01 between groups", "value": 5.7, "unit": "%"}]}
